Where “and” joins values, the source holds several entries; their conditions need not be identical. Equal entries are not always repeated.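 In this assay, cells in 96-well plates receive the compound at five concentrations for 48 hours. Endpoints are linearly interpolated between the surrounding concentrations. GI50: concentration for 50% inhibition of growth. TGI is the concentration that stops growth completely.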
Legend:
Experiment in all cases: inhibition of tumour cell growth, NCI panel, 48 h
HCT-15 colon = system: HCT-15 colon
SF-295 CNS = system: SF-295 CNS
MDA-MB-435 = system: MDA-MB-435
SK-MEL-2 melanoma = system: SK-MEL-2 melanoma
NCI/ADR-RES ovarian = system: NCI/ADR-RES ovarian
M14 melanoma = system: M14 melanoma
HOP-62 NSCLC = system: HOP-62 NSCLC
K-562 leukemia = system: K-562 leukemia
IGROV1 ovarian = system: IGROV1 ovarian
SR leukemia = system: SR leukemia

Row | SMILES | GI50 (HCT-15 colon) [µM] | TGI (HCT-15 colon) | GI50 (SF-295 CNS) [µM] | TGI (SF-295 CNS) | GI50 (MDA-MB-435) [µM] | TGI (MDA-MB-435) | GI50 (SK-MEL-2 melanoma) [µM] | TGI (SK-MEL-2 melanoma) [µM] | GI50 (NCI/ADR-RES ovarian) [µM] | TGI (NCI/ADR-RES ovarian) | GI50 (M14 melanoma) [µM] | TGI (M14 melanoma) | GI50 (HOP-62 NSCLC) [µM] | TGI (HOP-62 NSCLC) | GI50 (K-562 leukemia) [µM] | TGI (K-562 leukemia) | GI50 (IGROV1 ovarian) [µM] | TGI (IGROV1 ovarian) | GI50 (SR leukemia) [µM] | TGI (SR leukemia)
1 | O=C(CCCCCCN1CC(=O)N2[C@@H](c3ccc(Cl)c(Cl)c3)c3[nH]c4ccccc4c3C[C@H]2C1=O)NO | 10 | > 33.3 µM | 3.66 | 8 µM | 3.13 | 8.06 µM | 4.07 | 13.2 | > 33.3 | > 33.3 µM | 4.22 | 14.5 µM | 3.88 | 9.35 µM | 1.54 | 21.4 µM | 1.32 | 5.07 µM | 0.689 | 3.1 µM
2 | Cc1cc(N=Nc2ccccc2C)ccc1N |  | 25.2 µM and 33.4 µM |  | 25.2 µM and 31.3 µM | 12.7 | 49.3 µM and 46 µM |  | 33.5 | 13.7 | 25 µM and 43.2 µM | 16.1 | 24.9 µM and 38.7 µM | 15.2 | 19.2 µM and 36.4 µM | 12.8 | 32.8 µM and > 100 µM | 5.1 | 48.3 µM and 20 µM | 8.49 | 52.1 µM and 61.6 µM
3 | O=C(O)Cc1cccnc1 |  | > 100 µM |  | > 100 µM |  | > 100 µM |  | > 100 |  | > 100 µM |  | > 100 µM |  | > 100 µM |  | > 100 µM |  | > 100 µM |  | > 100 µM
4 | O=[N+]([O-])c1ccc(N2CCOCC2)c2c1no[n+]2[O-] | 1.32 | 2.89 µM | 1.08 | 4.67 µM | 2.15 | 7.35 µM | 2.06 | 5.11 | 1.54 | 12.3 µM | 1.11 | 3.81 µM | 1.61 | 6.58 µM | 1.65 | 3.57 µM | 1.3 | 4.15 µM |  | 
5 | O=C(/C=C/c1cccc(O)c1)c1cccc(-n2cc(-c3ccccc3)[nH]c2=O)c1 | 2.94 | 10.3 µM | 5.77 | 11.8 µM | 2.53 | 9.64 µM | 6.23 | 24.7 | 3.94 | 15.3 µM | 2.89 |  | 4.27 | > 25.9 µM | 2.52 | > 24.8 µM | 3.24 | 13.2 µM | 1.51 | > 20.1 µM
6 | Oc1c(I)cc(I)c2cccnc12 | 4.29 | > 100 µM | 3.1 | 8.13 µM | 4.41 | > 100 µM | 8.82 | 52.4 | 2.48 | 8.84 µM | 5.27 | 23.7 µM | 4.85 | 26.8 µM | 5.01 | > 100 µM | 4.24 | 30.8 µM | 5.75 | > 100 µM
